TBUT data for 1 substance are collected here from patent US20240408167A1, “COMPOSITION FOR TREATING OCULAR DISEASES CONTAINING PEPTIDE” (Encuragen Inc., priority 2023, published 2024).

For the test, the system named is rabbit DED model. Put plainly: Tear film break-up time (TBUT), rabbit DED model. The class given is in vivo. The source says: The rabbit DED model was induced by locally administrating 0.1% benzalkoniumchloride (BAC) drops (Sigma, St. Louis, MO, USA) twice a day (8 a.m. and 4 p.m.). Before the BAC treatment, the control group (baseline, naive) underwent standard dry eye clinical tests such as the Schirmer tear test (STT), TBUT, and corneal staining score (CSS) test. […] The test substance was locally applied bis in die (BID) to both eyes.
TBUT is the time elapsed between the last blink and the first appearance of fluorescein decomposition, and it is an indicator of tear film stability. […] The measurement was repeated three times to obtain an average value.
Tear film instability is an important pathological characteristic of DED and the most common indicator of tear quality.

The substance “NH2-Tyr-Tyr-Phe-Ala-Tyr-His-Pro-Asn-Ile-Pro-Gly-Leu-Tyr-Tyr-Phe-COOH (H-YYFAYHPNIPGLYYF-OH; also: PEGylated, site not given here (mPEG), acetate salt) [(PEG)-BHD1028]” yielded a TBUT (rabbit DED, 0.1% BID, Day 5) of 10.64 ± 0.99 s; a TBUT (rabbit DED, 0.1% BID, Day 10) of 17.88 ± 1.91 s; a TBUT (rabbit DED, 0.2% BID, Day 5) of 15.68 ± 1.58 s; a TBUT (rabbit DED, 0.2% BID, Day 10) of 17.72 ± 1.74 s; a TBUT (rabbit DED, 0.4% BID, Day 5) of 19.88 ± 1.42 s; a TBUT (rabbit DED, 0.4% BID, Day 10) of 22.71 ± 1.87 s. In addition, the TBUT by setting is: (rabbit, 0.1% group, Baseline (before BAC treatment)) 49.67 ± 3.17 s; (rabbit, 0.1% group, Day 0 (EDE), before treatment) 8.50 ± 1.0 s; (rabbit, 0.2% group, Baseline (before BAC treatment)) 49.83 ± 2.10 s; (rabbit, 0.2% group, Day 0 (EDE), before treatment) 8.89 ± 1.34 s; (rabbit, 0.4% group, Baseline (before BAC treatment)) 53.00 ± 2.29 s; (rabbit, 0.4% group, Day 0 (EDE), before treatment) 8.22 ± 1.16 s.
